Reference: US12404276B2, “Substituted pyrrolo[3,4-c]pyrazoles for treating gastric acid-related diseases” (SHANGHAI MEDICILON INC., priority 2019, dated 2025)

target: T1, H+/K+ ATPase (Oryctolagus cuniculus, UniProt P27112); assay: Determination of compounds' inhibition of H+/K+ ATPase enzyme activity (malachite green, OD 620 nm); type: biochemical; conditions: enzyme extracted from rabbit stomach mucosa; pH 6.5; 500 μM ATP; 37° C.; read-out: IC50(μM) inhibition rate (IC50) of H+/K+ ATPase enzyme activity
T1 construct: The stomach tissue of the rabbit was separated; from tissue; host or cells: rabbit stomach fundus mucosa, microsomal/Ficoll membrane fraction
From the text: Test Example: Determination of Compounds' Inhibition of H+/K+ ATPase Enzyme Activity
The following experiment is used to determine the inhibitory effect of the compound of the present invention on the H+/K+ ATPase enzyme activity.
• Plate reader: SpectraMax M5(MD) • Malachite Green (Sigma Aldrich, 213020-25G) • Ammonium molybdate (Sigma Aldrich, 277908-20G) • ATP (Sigma Aldrich, A1852-1VL). 2. Buffer Preparation • Enzyme working solution: titrating the enzyme, diluting the enzyme with buffer solution 1, and taking 5 μl of the diluted solution into 50 μl reaction system • ATP solution: 100 mM ATP was diluted to 5 mM with no K+ buffer, and 5 μl of the diluted solution was added to the 50 μl reaction system, that is, the final concentration of ATP was 500 μM MLG color development liquid: 0.12% MLG, 7.5% ammonium molybdate, 11% Tween-20 was mixed as 100:25:2, and adding 15 μl of the mixture into each well during detection. • Buffer 1: 50 mM Tris-HCl pH 6.5, 5 mM magnesium chloride (magnesium chloride), 10 μM valinomycin (valinomycin) • Buffer 2: 50 mM Tris-HCl pH 6.5, 5 mM magnesium chloride (magnesium chloride), 10 μM valinomycin (valinomycin), 20 mM KCl • Homogenization buffer: 10 mmol/L Tris-HCl, pH 6.8, 0.25 M sucrose (sucrose), 1 mmol/LEDTA 7.5% Ficoll layering solution: homogenization buffer+7.5% (W/W) (Ficoll 400). 3. Experimental Steps […] Enzyme Extraction • (1) The stomach tissue of the rabbit was separated, and the blood was washed with tap water, food residue. • (2) The fundus portion was thoroughly washed with pre-cooled NaCl solution to remove surface mucus. • (3) The stripped mucosa was filled into a sample bag or a 50 ml centrifuge tube, and quickly freezing in a liquid nitrogen tank. • (4) The tissue was removed, minced with surgical scissors, and a pre-cooled homogenization buffer (4 ml/g tissue) was added and homogenized in a tissue homogenizer for 2 to 10 minutes. • (5) After homogenization, if there were larger tissue particles, they could be removed by centrifugation (600 g, 10 min), and then the supernatant was transferred to a clean centrifuge tube. After centrifugation at 20000 g for 30 minutes, then the supernatant was transferred to a clean centrifuge tube at 100000 g for 90 minutes, and the precipitate was collected. • (6) Resuspending the precipitate with homogenization buffer, blowing uniformly, adding 7.5% Ficoll layering solution at equal ratio, centrifuging at 100000 g for 90 minutes, and collecting the precipitate. • (7) Resuspending the precipitate with homogenization buffer, blowing uniformly, and the protein concentration was measured by Bradford. Freezing in tubes at −80° C. for later use. 3.2. H+/K+ ATPase Activity Experiment • (1) Adding 35 μl of reaction buffer to each experimental well, and then adding […]. • (2) Adding 5 μl buffer 1 containing 10% DMSO to the whole enzyme and buffer well. • (3) Adding 5 μl of 10× compound working solution to the compound well and mixing well. • (4) Adding 5 μl of buffer 1 to the buffer well. • (5) Adding 5 μl of 10× enzyme working solution to the remaining wells, mixing and incubating at 37° C. for 30 minutes. • (6) Adding 5 μl of 10×ATP working solution to all experimental wells, mixing and incubating at 37° C. for 20 min. • (7) Adding 15 μl MLG chromogenic solution to all experimental wells, and uniformly mixing and incubating at room temperature for 5-30 min. • (8) The reading number of 620 nm was detected by an M5 instrument. 4. Data Analysis
The inhibition rate is calculated with the following formula: Inhibition rate (IC50)=[OD (sample well)−OD (full enzyme well containing potassium chloride)]/[(OD (full enzyme well containing potassium chloride)−(OD (full enzyme well without potassium chloride)]×100% 5. Experimental Results

T1 sequence (P27112 whole entry): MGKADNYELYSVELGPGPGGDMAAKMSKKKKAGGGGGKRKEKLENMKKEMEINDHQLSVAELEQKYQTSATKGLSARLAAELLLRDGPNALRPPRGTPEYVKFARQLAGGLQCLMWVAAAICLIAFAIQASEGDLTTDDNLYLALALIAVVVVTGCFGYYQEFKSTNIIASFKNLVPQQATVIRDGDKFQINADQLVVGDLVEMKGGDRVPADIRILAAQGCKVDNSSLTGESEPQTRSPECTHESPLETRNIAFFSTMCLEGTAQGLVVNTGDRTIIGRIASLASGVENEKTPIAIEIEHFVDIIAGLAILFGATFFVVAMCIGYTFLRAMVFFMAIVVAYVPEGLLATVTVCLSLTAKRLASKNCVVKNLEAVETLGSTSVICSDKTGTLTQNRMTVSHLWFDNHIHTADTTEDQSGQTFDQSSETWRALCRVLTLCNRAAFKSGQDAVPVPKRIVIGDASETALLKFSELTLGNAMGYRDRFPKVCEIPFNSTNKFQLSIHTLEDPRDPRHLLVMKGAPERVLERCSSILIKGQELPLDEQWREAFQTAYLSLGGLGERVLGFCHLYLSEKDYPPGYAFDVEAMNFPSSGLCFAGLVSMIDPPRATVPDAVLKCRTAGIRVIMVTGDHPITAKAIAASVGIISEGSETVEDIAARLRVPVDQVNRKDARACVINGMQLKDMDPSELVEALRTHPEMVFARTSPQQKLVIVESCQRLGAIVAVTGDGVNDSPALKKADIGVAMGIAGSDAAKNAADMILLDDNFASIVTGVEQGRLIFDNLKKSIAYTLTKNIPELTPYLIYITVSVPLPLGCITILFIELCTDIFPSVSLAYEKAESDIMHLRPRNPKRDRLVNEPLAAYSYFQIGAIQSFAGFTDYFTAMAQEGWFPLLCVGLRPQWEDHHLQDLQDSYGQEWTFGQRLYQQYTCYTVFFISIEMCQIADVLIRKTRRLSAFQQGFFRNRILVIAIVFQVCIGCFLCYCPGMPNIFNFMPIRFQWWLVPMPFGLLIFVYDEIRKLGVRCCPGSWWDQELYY
T1 sequence (P18597 whole entry partner): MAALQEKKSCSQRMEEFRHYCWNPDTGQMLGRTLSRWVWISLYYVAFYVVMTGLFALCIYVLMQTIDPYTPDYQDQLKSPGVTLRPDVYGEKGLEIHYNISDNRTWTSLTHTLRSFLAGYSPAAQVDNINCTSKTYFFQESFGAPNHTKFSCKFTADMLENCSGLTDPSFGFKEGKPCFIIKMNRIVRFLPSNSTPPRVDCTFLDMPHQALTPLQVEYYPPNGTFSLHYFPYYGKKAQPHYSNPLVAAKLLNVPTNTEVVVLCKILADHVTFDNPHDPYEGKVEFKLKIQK

Question: With `CN1Cc2nn(Cc3ccc(O)c(C4=CCOCC4)c3)c(-c3ccccc3F)c2C1` [Example 1, 2-(3,6-dihydro-2H-pyran-4-yl)-4-((3-(2-fluorophenyl)-5-methyl-5,6-dihydropyrrolo[3,4-c]pyrazole-2(4H)-yl)methyl)phenol] as the compound, how does the IC50 read?
Answer: The IC50 was 0.233 µM.

Question: For `CN1Cc2nn(Cc3ccc(O)c(C4=CCCOC4)c3)c(-c3ccccc3F)c2C1` [Example 2, 2-(5,6-dihydro-2H-pyran-3-yl)-4-((3-(2-fluorophenyl)-5-methyl-5,6-dihydropyrrolo[3,4-c]pyrazole-2(4H)-yl)methyl)phenol], which IC50 is on record?
Answer: The IC50 was 0.0559 µM.

Question: With `CN1Cc2nn(Cc3cccc(C4=CCCOC4)c3)c(-c3ccccc3F)c2C1` [Example 3, 2-(3-(5,6-dihydro-2H-pyran-3-yl)benzyl)-3-(2-fluorophenyl)-5-methyl-2,4,5,6-tetrahydropyrrolo[3,4-C]pyrazole] as the compound, how does the IC50 read?
Answer: The IC50 was 0.197 µM.

Question: Which IC50 does the source give for `CN1Cc2nn(Cc3cc(O)cc(C4=CCCOC4)c3)c(-c3ccccc3F)c2C1` [Example 4, 3-(5,6-dihydro-2H-pyran-3-yl)-5-((3-(2-fluorophenyl)-5-methyl-5,6-dihydropyrrolo[3,4-c]pyrazole-2(4H)-yl)methyl)phenol] here?
Answer: Its IC50 is 0.113 µM.

Question: With `CN1Cc2nn(Cc3cccc(C4=CCOCC4)c3)c(-c3ccccc3F)c2C1` [Example 5, 2-(3-(3,6-dihydro-2H-pyran-4-yl)benzyl)-3-(2-fluorophenyl)-5-methyl-2,4,5,6-Tetrahy dropyrrolo[3,4-C]pyrazole] as the compound, how does the IC50 read?
Answer: The IC50 was 0.0883 µM.

Question: With `CN1Cc2nn(Cc3cc(Cl)cc(C4=CCOCC4)c3)c(-c3ccccc3F)c2C1` [Example 6, 2-(3-chloro-5-(3,6-dihydro-2H-pyran-4-yl)benzyl)-3-(2-fluorophenyl)-5-methyl-2,4,5,6-tetrahydropyrrolo[3,4-c]pyrazole] as the compound, how does the IC50 read?
Answer: The IC50 was 0.121 µM.

Question: With `CN1Cc2nn(Cc3ccc(F)c(C4=CCOCC4)c3)c(-c3ccccc3F)c2C1` [Example 7, 2-(3-(3,6-dihydro-2H-pyran-4-yl)-4-fluorobenzyl)-3-(2-fluorophenyl)-5-methyl-2,4,5,6-tetrahydropyrrolo[3,4-c]pyrazole] as the compound, how does the IC50 read?
Answer: The IC50 was 0.114 µM.

Question: How did the IC50 turn out when `CN1Cc2nn(Cc3cc(O)cc(C4=CCOCC4)c3)c(-c3ccccc3F)c2C1` [Example 8, 3-(3,6-dihydro-2H-pyran-4-yl)-5-((3-(2-fluorophenyl)-5-methyl-5,6-dihydropyrrolo[3,4-c]pyrazole-2(4H)-yl)methyl)phenol] was run?
Answer: Its IC50 is 0.0811 µM.

Question: For `CN1Cc2nn(Cc3cccc(C4=CCNCC4)c3)c(-c3ccccc3F)c2C1` [Example 9, 3-(2-fluorophenyl)-5-methyl-2-(3-(1,2,3,6-tetrahydropyridin-4-yl)benzyl)-2,4,5,6-tetrahydropyrrolo[3,4-C]pyrazole], which IC50 is on record?
Answer: The IC50 was 0.208 µM.

Question: `CN1Cc2nn(Cc3cccc(C4=CCOCC4)c3)c(-c3cccnc3F)c2C1` [Example 10, 2-(3-(3,6-dihydro-2H-pyran-4-yl)benzyl)-3-(2-fluoropyridin-3-yl)-5-methyl-2,4,5,6-tetrahydropyrrolo[3,4-c]pyrazole] was tested. Which IC50 did it give?
Answer: The IC50 was 0.769 µM.
